In patent US20260049085A1, “CYCLIC COMPOUNDS AND METHODS OF USING SAME” (SCHRÖDINGER, INC., priority 2022, published 2026):

The compounds below were run against T1, full-length MALT1 protein His-MALT1(1-824) (Homo sapiens, UniProt Q9UDY8) (assay: MALT1 protease assay (Ac-LRSR-AMC tetrapeptide substrate, fluorescence)). Settings: 1 nM MALT1, 25 μM Ac-LRSR-AMC, 2 h pre-incubation, 8 hr incubation at RT.
T1 construct: full-length MALT1 protein His-MALT1(1-824); His (N); made in house; host or cells: baculovirus-infected insect cells
T1 sequence (Q9UDY8 1-824): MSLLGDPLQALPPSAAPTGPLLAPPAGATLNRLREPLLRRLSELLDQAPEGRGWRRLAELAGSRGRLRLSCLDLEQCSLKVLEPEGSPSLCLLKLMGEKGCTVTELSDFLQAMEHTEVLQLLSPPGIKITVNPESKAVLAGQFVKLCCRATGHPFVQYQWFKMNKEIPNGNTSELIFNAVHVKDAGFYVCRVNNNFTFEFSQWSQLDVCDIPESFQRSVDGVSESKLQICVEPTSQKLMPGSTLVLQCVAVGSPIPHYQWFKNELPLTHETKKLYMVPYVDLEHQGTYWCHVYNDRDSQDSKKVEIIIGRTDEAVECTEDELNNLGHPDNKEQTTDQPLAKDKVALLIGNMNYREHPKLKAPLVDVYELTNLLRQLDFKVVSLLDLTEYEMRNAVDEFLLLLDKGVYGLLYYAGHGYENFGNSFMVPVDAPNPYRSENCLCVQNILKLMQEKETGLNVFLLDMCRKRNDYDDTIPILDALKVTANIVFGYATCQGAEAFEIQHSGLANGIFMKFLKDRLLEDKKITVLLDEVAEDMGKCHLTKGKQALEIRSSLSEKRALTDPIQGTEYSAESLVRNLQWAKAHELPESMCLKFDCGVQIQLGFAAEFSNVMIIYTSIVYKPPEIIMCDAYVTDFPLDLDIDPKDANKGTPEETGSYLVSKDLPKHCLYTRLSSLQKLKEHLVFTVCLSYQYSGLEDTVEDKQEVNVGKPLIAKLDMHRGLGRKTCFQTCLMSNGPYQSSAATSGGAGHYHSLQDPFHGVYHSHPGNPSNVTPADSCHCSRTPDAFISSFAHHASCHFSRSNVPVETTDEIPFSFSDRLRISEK
Format: biochemical
Description: MALT1 protease activity was assessed in an in vitro assay using a tetrapeptide as substrate and full-length MALT1 protein His-MALT1(1-824) purified from baculovirus-infected insect cells.
The final assay buffer includes 1 nM of MALT1 full-length protein, 25 μM Ac-LRSR-AMC substrate, 50 mM Tris pH 7.5, 600 mM Sodium Citrate, 1 mM DTT, 1 mM EDTA, and 0.05% BSA in 384-well plate format using black microtiter square well plates (Optiplate 384-F, Perkin Elmer).
Test compounds were dissolved in 100% DMSO stock of 10 mM, with final DMSO concentration of 0.1%. Test compounds were pre-incubated with MALT1 protein for 2 h at room temperature. Substrate was added after the pre-incubation and fluorescence signal was measured using Envision at excitation 355 nm and emission 460 nm after 8 hr incubation at RT.
The fluorescence units were transformed to percentage of remaining activity by using the high control (HC, median of fluorescence signal from wells containing MALT1 protein, substrate, and DMSO) and low control (LC, median of fluorescence signal from wells with substrate only) with the formula below: […]
IC50 and Hill coefficients were obtained using Graph Pad Prism (Graph Pad software, Inc, USA) with non-linear regression analysis.

| SMILES | IC50 [nM] |
| --- | --- |
| Cn1cc([C@]2(C)C[C@H](C(=O)Nc3cnc(-n4nccn4)c(Cl)c3)c3cnc4cc(F)nn4c32)cn1 (racemic) [Example 3, (cis)-N-(5-chloro-6-(2H-1,2,3-triazol-2-yl)pyridin-3-yl)-2-fluoro-8-methyl-8-(1-methyl-1H-pyrazol-4-yl)-7,8-dihydro-6H-cyclopenta[e]pyrazolo[1,5-a]pyrimidine-6-carboxamide] | 100 to 1000 |
| CC(F)(F)n1ccc([C@]2(C)C[C@H](C(=O)Nc3cnc(-c4ncccn4)c(Cl)c3)c3cnc4cc(F)nn4c32)n1 (racemic) [Example 170, (cis)-N-(5-chloro-6-(pyrimidin-2-yl)pyridin-3-yl)-8-(1-(1,1-difluoroethyl)-1H-pyrazol-3-yl)-2-fluoro-8-methyl-7,8-dihydro-6H-cyclopenta[e]pyrazolo[1,5-a]pyrimidine-6-carboxamide] | 100 to 1000 |
| Cc1cc2ncc3c(n2n1)[C@@](C)(c1ccn(C(F)F)n1)C[C@@H]3C(=O)Nc1cnc(-c2ncccn2)c(C(F)(F)F)c1 (racemic) [Example 195, (tras)-8-(1-(difluoromethyl)-1H-pyrazol-3-yl)-2,8-dimethyl-N-(6-(pyrimidin-2-yl)-5-(trifluoromethyl)pyridin-3-yl)-7,8-dihydro-6H-cyclopenta[e]pyrazolo[1,5-a]pyrimidine-6-carboxamide] | 10 to 100 |
| Cc1cc2ncc3c(n2n1)[C@](C)(c1ccn(C(F)F)n1)C[C@@H]3C(=O)Nc1cnc(-c2ncccn2)c(C(F)(F)F)c1 (racemic) [Example 196, (cis)-8-(1-(difluoromethyl)-1H-pyrazol-3-yl)-2,8-dimethyl-N-(6-(pyrimidin-2-yl)-5-(trifluoromethyl)pyridin-3-yl)-7,8-dihydro-6H-cyclopenta[e]pyrazolo[1,5-a]pyrimidine-6-carboxamide] | 100 to 1000 |
| Cn1cc([C@]2(C)C[C@@H](C(=O)Nc3cnc(-n4nccn4)c(Cl)c3)c3cnc4cc(F)nn4c32)cn1 (single isomer, unassigned) [Example 2] | ≥ 1000 |
| Cn1cc([C@]2(C)C[C@@H](C(=O)Nc3cnc(-n4nccn4)c(C(F)(F)F)c3)c3cnc4cc(F)nn4c32)cn1 (single isomer, unassigned) [Example 4] | ≥ 1000 |
| Cn1cc([C@@]2(C)C[C@@H](C(=O)Nc3cnc(-n4nccn4)c(C(F)(F)F)c3)c3cnc4cc(F)nn4c32)cn1 (single isomer, unassigned) [Example 6] | 100 to 1000 |
| Cn1cc([C@]2(C)C[C@H](C(=O)Nc3cnc(-n4nccn4)c(C(F)(F)F)c3)c3cnc4cc(F)nn4c32)cn1 (single isomer, unassigned) [Example 7] | 100 to 1000 |
| Cn1cc([C@]2(C)C[C@@H](C(=O)Nc3cnc(-n4nccn4)c(Cl)c3)c3cnc4cc(Cl)nn4c32)cn1 (single isomer, unassigned) [Example 9] | ≥ 1000 |
| Cn1cc([C@]2(C)C[C@H](C(=O)Nc3cnc(-n4nccn4)c(Cl)c3)c3cnc4cc(Cl)nn4c32)cn1 (single isomer, unassigned) [Example 10] | 100 to 1000 |
| Cn1cc([C@@]2(C)C[C@@H](C(=O)Nc3cnc(-n4nccn4)c(Cl)c3)c3cnc4cc(Cl)nn4c32)cn1 (single isomer, unassigned) [Example 11] | 100 to 1000 |
| Cn1cc([C@]2(C)C[C@@H](C(=O)Nc3cnc(-n4nccn4)c(Cl)c3)c3cnc4c(F)c(F)nn4c32)cn1 (single isomer, unassigned) [Example 13] | ≥ 1000 |
| Cn1cc([C@]2(C)C[C@H](C(=O)Nc3cnc(-n4nccn4)c(Cl)c3)c3cnc4c(F)c(F)nn4c32)cn1 (single isomer, unassigned) [Example 14] | 100 to 1000 |
| Cn1cc([C@@]2(C)C[C@@H](C(=O)Nc3cnc(-n4nccn4)c(Cl)c3)c3cnc4c(F)c(F)nn4c32)cn1 (single isomer, unassigned) [Example 15] | 100 to 1000 |
| Cn1cc([C@@]2(C)C[C@H](C(=O)Nc3cnc(-n4nccn4)c(Cl)c3)c3cnc4c(Cl)c(F)nn4c32)cn1 (single isomer, unassigned) [Example 16] | 100 to 1000 |
| Cn1cc([C@]2(C)C[C@@H](C(=O)Nc3cnc(-n4nccn4)c(Cl)c3)c3cnc4c(Cl)c(F)nn4c32)cn1 (single isomer, unassigned) [Example 17] | ≥ 1000 |
| Cn1cc([C@]2(C)C[C@H](C(=O)Nc3cnc(-n4nccn4)c(Cl)c3)c3cnc4c(Cl)c(F)nn4c32)cn1 (single isomer, unassigned) [Example 18, cis-3-chloro-N-(5-chloro-6-(2H-1,2,3-triazol-2-yl)pyridin-3-yl)-2-fluoro-8-methyl-8-(1-methyl-1H-pyrazol-4-yl)-7,8-dihydro-6H-cyclopenta[e]pyrazolo[1,5-a]pyrimidine-6-carboxamide] | ≥ 1000 |
| Cn1cc([C@@]2(C)C[C@@H](C(=O)Nc3cnc(-n4nccn4)c(Cl)c3)c3cnc4c(Cl)c(F)nn4c32)cn1 (single isomer, unassigned) [Example 19, cis-3-chloro-N-(5-chloro-6-(2H-1,2,3-triazol-2-yl)pyridin-3-yl)-2-fluoro-8-methyl-8-(1-methyl-1H-pyrazol-4-yl)-7,8-dihydro-6H-cyclopenta[e]pyrazolo[1,5-a]pyrimidine-6-carboxamide] | ≥ 1000 |
| CCn1cc([C@]2(C)C[C@@H](C(=O)Nc3cnc(-n4nccn4)c(Cl)c3)c3cnc4cc(F)nn4c32)cn1 (single isomer, unassigned) [Example 21] | ≥ 1000 |
| CCn1cc([C@]2(C)C[C@H](C(=O)Nc3cnc(-n4nccn4)c(Cl)c3)c3cnc4cc(F)nn4c32)cn1 (single isomer, unassigned) [Example 22] | 10 to 100 |
| CCn1cc([C@@]2(C)C[C@@H](C(=O)Nc3cnc(-n4nccn4)c(Cl)c3)c3cnc4cc(F)nn4c32)cn1 (single isomer, unassigned) [Example 23] | 100 to 1000 |
| C[C@@]1(c2cnn(C(F)F)c2)C[C@@H](C(=O)Nc2cnc(-n3nccn3)c(Cl)c2)c2cnc3cc(F)nn3c21 (single isomer, unassigned) [Example 25] | ≥ 1000 |
| C[C@@]1(c2cnn(C(F)F)c2)C[C@H](C(=O)Nc2cnc(-n3nccn3)c(Cl)c2)c2cnc3cc(F)nn3c21 (single isomer, unassigned) [Example 26] | 10 to 100 |
| C[C@]1(c2cnn(C(F)F)c2)C[C@@H](C(=O)Nc2cnc(-n3nccn3)c(Cl)c2)c2cnc3cc(F)nn3c21 (single isomer, unassigned) [Example 27] | ≥ 1000 |
| C[C@@]1(c2cnn(C3CC3)c2)C[C@@H](C(=O)Nc2cnc(-n3nccn3)c(Cl)c2)c2cnc3cc(F)nn3c21 (single isomer, unassigned) [Example 29] | ≥ 1000 |
| C[C@@]1(c2cnn(C3CC3)c2)C[C@H](C(=O)Nc2cnc(-n3nccn3)c(Cl)c2)c2cnc3cc(F)nn3c21 (single isomer, unassigned) [Example 30] | 10 to 100 |
| C[C@]1(c2cnn(C3CC3)c2)C[C@@H](C(=O)Nc2cnc(-n3nccn3)c(Cl)c2)c2cnc3cc(F)nn3c21 (single isomer, unassigned) [Example 31] | ≥ 1000 |
| Cn1ccc([C@]2(C)C[C@@H](C(=O)Nc3cnc(-n4nccn4)c(Cl)c3)c3cnc4cc(F)nn4c32)n1 (single isomer, unassigned) [Example 33] | ≥ 1000 |
| Cn1ccc([C@]2(C)C[C@H](C(=O)Nc3cnc(-n4nccn4)c(Cl)c3)c3cnc4cc(F)nn4c32)n1 (single isomer, unassigned) [Example 34] | 100 to 1000 |
